Laboratory results as given in US6958345B2, “2-hydroxymethylcyclopropylidene methylpurines and -pyrimidines as antiviral agents” (The Regents of the University of Michigan, priority 1997, dated 2005).
pIC50: −log10 of the molar value.

Tested on: HHV-6
Assay: HHV-6 ELISA in HSB-2 cells
Format: cell-based, human herpes virus 6 (HHV 6)
Details: Homo sapiens, HSB2
Experimental: (c) HHV-6. In this case, enzyme-linked immunosorbent assay (ELISA) was performed in covalent amine plates (Costar, Cambridge, Mass.). The plates were activated by the addition of a homobifunctional crosslinking agent, bis(sulfosuccinimidyl) suberate, which was dissolved at 1 mg/mL in 30 mL of phosphate buffered saline (PBS: 137 mM NaCl, 2.7 mM KCl, 4.3 mM Na2HPO4, 1.4 mM KH2PO4, pH 7.4) and 300 μL of the crosslinker was added to each well in the covalent plate. The crosslinker reacted with the amine function on the plate for 30 min at room temperature. The byproduct, sodium N-hydroxysuccinimide sulfite, was removed by decanting and washing the plate twice with PBS. Samples consisting of 150 μl of mixed suspended HSB2 cells from the original drug-treated plate were solubilized in an equal volume of 10% Triton X-100 in coating buffer (15 mM Na2CO3, […] NaHCO3, pH 9.6). The plate was covered and then incubated for 1 h at 37° C. in a 5% CO2 atmosphere. These binding conditions facilitated covalent attachment of the antigen to the free end of the crosslinker.
After covalent binding, the antigen solution was decanted and the plate was washed six times in HEPES buffered saline (Shipman, C., Jr., Proc. Soc. Exp. Biol. 130:305-310 (1969)) with 0.05% Tween 20 (HBS-T ), soaking for three min for each wash. […] Absorbance in each well was determined at 450/570 nm.

O=C(O)P(=O)(O)O [Foscarnet, reference compound] was tested, and the pIC50 was 4.82.
